Test results taken from publication PMC10059083, “Design, Synthesis, and Biological Evaluation of Novel Hydroxamic Acid-Based Organoselenium Hybrids” (Pharmaceuticals, 2023).
Read-outs that look alike come from different tables or passages of the source.

What was measured:
S. aureus [1] = test: Agar diffusion assay, S. aureus; format: cell-based, Staphylococcus aureus; set-up: concentration or dose not given beside the values; details: ratio of inhibition zone of compound to that of positive control (ampicillin)
From the text: (§1) The encouraging antitumor properties of the OSe compounds motivated us to evaluate their corresponding antimicrobial activities against the C. albicans fungal strain, S. aureus Gram-positive bacteria, and E. coli Gram-negative bacteria. Therefore, we applied the agar diffusion and minimum inhibitory concentration (MIC) methods using clotrimazole antifungal and ampicillin antibacterial drugs as standards.
The products’ antimicrobial properties were examined according to the previously reported method, via agar well diffusion assay against E. coli, S. aureus, and C. albicans. A microdilution method was also used to record MICs (M), following the previously reported procedure. Experimental details can be found in the Supplementary Materials. […]
(§2) 1.1.2. The antimicrobial activity
The antimicrobial activities of the OSe compounds were evaluate d against C. albicans yeast as well as E. coli gram-negative and S. aureus gram-positive bacteria employing the agar well diffusion assay.
Briefly, a concentration of 1 mM was prepared for each compound by dissolving in DMSO. Paper discs of standard size […] were sterilized in an autoclave and soaked in 9 µL of the test compounds, and placed in the Petri dishes, which in turn contain a nutrient media (agar 9 g, peptone 5 g, and beef extract 3 g) seeded with the dedicated strain. Incubation lasted for 13 h at 36 0C.
Experiments were replicated three times and the antifungal clotrimazole and antibiotic ampicillin […]

HepG2 cells = test: MTT antiproliferative assay, HepG2 cells; format: cell-based; details: for IC50: Homo sapiens, read-out: HepG2 IC50; for HepG2 TI (therapeutic index): ratio of IC50 against WI38 cells to IC50 against HepG2 cells
From the text: (§3) Recently, OSe agents have attracted interest due to their potential chemoprotective and antitumor properties. We have developed several OSe compounds with promising antioxidant, antimicrobial, and antitumor properties. Therefore, we estimated the OSe agents’ antiproliferative activities against different cancer cells, i.e., MCF-7 and HepG2 cells and healthy lung fibroblast WI-38 cells, using the MTT assay. The drug doxorubicin was employed as the standard. The corresponding therapeutic indices (TI) are described as the proportion of the WI38 cells IC50 to the IC50 of the cancer cell (e.g., MCF-7 and HepG2) (Table 1).
(§4) The products’ anticancer activity was examined using the MTT assay against breast (MCF-7) carcinoma cells, liver (HepG2), and normal WI-38 cells, following the previously reported method. Experimental details can be found in the Supplementary Materials.
(§5) 1.1. The biological assays
(§6) 1.1.1. The anticancer activity
(§7) The breast adenocarcinoma (MCF-7), Hepatocellular carcinoma (HEPG-2), and normal fibroblast (WI-38) cells were obtained from ATCC via Holding company for biological products and vaccines (VACSERA), Cairo, Egypt. The reagents […] medium, MTT, DMSO, and fetal bovine serum was obtained from Sigma Aldrich. Dulbecco’s modified Eagle’s medium was used as the culture medium for the cells, and the cytotoxicity was evaluated using the reported MTT assay. Doxorubicin was used as the positive reference, and the IC50 values were obtained from the corresponding dose-response curve.
(§8) This colorimetric assay is based on converting the yellow tetrazolium bromide (MTT) to a purple formazan derivative by mitochondrial succinate dehydrogenase in viable cells. Cell lines were cultured in […] medium with 10% fetal bovine serum. Antibiotics added were 100 units/ml penicillin and 100µg/ml streptomycin at 37 C in a 5% Co2 incubator. The cell lines were seeded in a 96-well plate at a density of 1.0x10^4 cells/well. at 37 C for 48 h under 5% Co2. After incubation, the cells were treated with different concentrations of compounds and incubated for 13 […]
Finally, dimethyl sulfoxide (DMSO) in the volume of 100 µl is added to each well to dissolve the purple formazan formed. The colorimetric assay is measured and recorded at an absorbance of 570 nm using a plate reader (EXL 800, USA). The percentage of the relative cell viability was calculated as (A570 of treated samples/A570 of the untreated sample) X 100. […]

S. aureus [2] = test: Agar diffusion assay, S. aureus; format: cell-based; details: Staphylococcus aureus; 6-mm disks soaked with 20 μM of the OSe agents; read-out: S. aureus ZID (inhibition zone diameter)
WI-38 cells = test: MTT cytotoxicity assay, normal lung fibroblast WI-38 cells; format: cell-based; details: Homo sapiens, WI-38, 24 h, read-out: WI38 IC50
From the text: as §3, with “We have developed several OSe compounds with promising antioxidant, antimicrobial, and antitumor properties.” left out
as §4, §5, §6, §7, §8
(§9) Finally, dimethyl sulfoxide (DMSO) in the volume of 100 µl is added to each well to dissolve the purple formazan formed. The colorimetric assay is measured and recorded at an absorbance of 570 […]
(§10) The percentage of the relative cell viability was calculated as (A570 of treated samples/A570 of the untreated sample) X 100. […]

E. coli = test: Agar diffusion assay, E. coli; format: cell-based, Escherichia coli; details: for E. coli ZID (inhibition zone diameter): 6-mm disks soaked with 20 μM of the OSe agents; for E. coli IA% (activity index): ratio of inhibition zone of compound to that of positive control (ampicillin)
From the text: as §1
The products’ antimicrobial properties were examined according to the previously reported method, via agar well diffusion assay against E. coli, S. aureus, and C. albicans. A microdilution method was also used to record MICs (M), following the previously reported procedure. Experimental details can be found in the Supplementary Materials.
1.1. […]
as §2
The antimicrobial activities of the OSe compounds were evaluate d against C. albicans yeast as well as E.
coli gram-negative and S. aureus gram-positive bacteria employing the agar well diffusion assay. […]
5 g, and beef extract 3 g) seeded with the dedicated strain. Incubation lasted for 13 h at 36 0C.
Experiments were replicated three times and the antifungal clotrimazole and antibiotic ampicillin
1.1.3. […]

MCF-7 cells = test: MTT antiproliferative assay, MCF-7 cells; format: cell-based; details: for IC50: Homo sapiens, MCF7, 24 h, read-out: MCF7 IC50; for MCF7 TI (therapeutic index): ratio of IC50 against WI38 cells to IC50 against MCF-7 cells
From the text: as §3, with “We have developed several OSe compounds with promising antioxidant, antimicrobial, and antitumor properties.” left out
as §4, §5, §6, §7, §8, §9, §10

C. albicans = test: Agar diffusion assay, C. albicans; format: cell-based, Candida albicans; details: for zone of inhibition at 20 µM: Candida albicans, read-out: C. albicans ZID (inhibition zone diameter); for C. albicans IA% (activity index): ratio of inhibition zone of compound to that of positive control (clotrimazole)

IC50 (HepG2 cells; MTT bioassay, HepG2 cells, 24 h incubation) [µM]	SMILES	S. aureus IA% (activity index) (S. aureus [1]) [%]	IC50 (HepG2 cells; HepG2, 24 h) [µM]	HepG2 TI (therapeutic index) (HepG2 cells)	zone of inhibition at 20 µM (S. aureus [2]) [mm]	IC50 (WI-38 cells) [µM]	E. coli ZID (inhibition zone diameter) (E. coli) [mm]	E. coli IA% (activity index) (E. coli) [%]	IC50 (MCF-7 cells) [µM]	MCF7 TI (therapeutic index) (MCF-7 cells)	zone of inhibition at 20 µM (C. albicans) [mm]	C. albicans IA% (activity index) (C. albicans) [%]
	O=C(C[Se]c1ccc(N=Nc2ccc(O)cc2)cc1)NOCc1ccccc1 [Compound 16, N-(benzyloxy)-2-((4-((4-hydroxyphenyl)diazenyl)phenyl)selanyl)acetamide]	52.4	26.5 ± 2	2.4	11	64.2 ± 3.9	9	39.1	33.7 ± 2.4	1.9	16	66.7
	O=C(C[Se]c1ccc(NC(=O)CCl)cc1)NOCc1ccccc1 [Compound 14, N-(benzyloxy)-2-((4-(2-chloroacetamido)phenyl)selanyl)acetamide]		> 100			> 100			87.4 ± 4.1	1.1	4	16.7
	CC(=O)Nc1ccc([Se]CC(=O)NOCc2ccccc2)cc1 [Compound 9, 2-((4-Acetamidophenyl)selanyl)-N-(benzyloxy)acetamide]	33.3	53 ± 3.2	1.6	7	84.8 ± 4.8	6	26.1	45.6 ± 2.9	1.9	9	37.5
	CC1(C)S[C@@H]2[C@H](NC(=O)[C@H](N)c3ccccc3)C(=O)N2[C@H]1C(=O)O [Ampicillin, ampicillin, reference compound]	100			21		23	100				
4.5 ± 0.2	COc1cccc2c1C(=O)c1c(O)c3c(c(O)c1C2=O)C[C@@](O)(C(=O)CO)C[C@@H]3O[C@H]1C[C@H](N)[C@H](O)[C@H](C)O1 [Adriamycin, doxorubicin, reference compound]											
	CCOC(=O)C(C#N)=NNc1ccc([Se]CC(=O)NOCc2ccccc2)cc1 [Compound 15, Ethyl 2-(2-(4-((2-((benzyloxy)amino)-2-oxoethyl)selanyl)phenyl)hydrazineylidene)-2-cyanoacetate]	71.4	15.8 ± 1.3	5.2	15	82 ± 4.6	12	52.2	21.6 ± 1.6	3.8	20	83.3
	O=C(O)C=CC(=O)Nc1ccc([Se]CC(=O)NOCc2ccccc2)cc1 [Compound 12, 4-((4-((2-((Benzyloxy)amino)-2-oxoethyl)selanyl)phenyl)amino)-4-oxobut-2-enoic Acid]	23.8	72.9 ± 3.7	0.5	5	36.5 ± 2.4	4	17.4	63 ± 3.8	0.6	10	41.7
	O=C(O)CCC(=O)Nc1ccc([Se]CC(=O)NOCc2ccccc2)cc1 [Compound 11, 4-((4-((2-((Benzyloxy)amino)-2-oxoethyl)selanyl)phenyl)amino)-4-oxobutanoic Acid]	47.6	48.8 ± 2.8	1.1	10	52.5 ± 3.2	7	30.4	35 ± 2.5	1.5	13	54.2
